Each block holds one molecule with its values, some of them ahead of it.
Columns and labels:
Test in all cases: radiometric filter-binding kinase assay, Kinase HotSpot
Settings in all cases: compound 0.5 µM; ATP 10 µM
[1] = target: LTK (human) (UniProt P29376)
[2] = target: CDK9 CCNT1 (human) (UniProt P50750+O60563)
[3] = target: PRKCA (human) (UniProt P17252)
[4] = target: MAP3K9 (human) (UniProt P80192)
[5] = target: EPHA6 (human) (UniProt Q9UF33)
[6] = target: YES1 (human) (UniProt P07947)
[7] = target: AXL (human) (UniProt P30530)
[8] = target: BRAF (human) (UniProt P15056)
[9] = target: PRKCZ (human) (UniProt Q05513)
[10] = target: TTK (human) (UniProt P33981)
[11] = target: MARK3 (human) (UniProt P27448)
[12] = target: CDK2 CCNE1 (human) (UniProt P24941+P24864)
[13] = target: TAOK1 (human) (UniProt Q7L7X3)
[14] = target: NTRK2 (human) (UniProt Q16620)
[15] = target: MAP3K2 (human) (UniProt Q9Y2U5)
[16] = target: GRK7 (human) (UniProt Q8WTQ7)
[17] = target: ITK (human) (UniProt Q08881)
Chain of ITK (human) (Q08881 whole entry, looked up): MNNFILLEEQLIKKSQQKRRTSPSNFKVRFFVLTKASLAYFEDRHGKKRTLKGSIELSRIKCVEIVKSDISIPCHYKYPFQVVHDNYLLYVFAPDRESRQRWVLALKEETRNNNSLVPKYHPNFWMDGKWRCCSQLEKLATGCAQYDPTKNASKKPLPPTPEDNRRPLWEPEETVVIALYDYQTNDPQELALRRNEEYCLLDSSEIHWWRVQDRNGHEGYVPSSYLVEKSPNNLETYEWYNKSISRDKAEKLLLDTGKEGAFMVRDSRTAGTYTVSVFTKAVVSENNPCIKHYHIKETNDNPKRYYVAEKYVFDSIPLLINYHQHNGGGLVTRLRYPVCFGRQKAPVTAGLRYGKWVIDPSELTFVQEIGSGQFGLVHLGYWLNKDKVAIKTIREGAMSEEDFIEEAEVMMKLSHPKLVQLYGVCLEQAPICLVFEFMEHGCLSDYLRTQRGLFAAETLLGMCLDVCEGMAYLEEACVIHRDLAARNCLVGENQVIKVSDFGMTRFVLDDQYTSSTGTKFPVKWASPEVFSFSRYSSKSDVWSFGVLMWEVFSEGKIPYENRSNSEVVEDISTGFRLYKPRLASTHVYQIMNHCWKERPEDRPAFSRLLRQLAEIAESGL

[18] = target: PRKD1 (human) (UniProt Q15139)
[19] = target: PTK6 (human) (UniProt Q13882)
[20] = target: DSTYK (human) (UniProt Q6XUX3)
[21] = target: TAOK2 (human) (UniProt Q9UL54)
[22] = target: NUAK2 (human) (UniProt Q9H093)
[23] = target: PRKCD (human) (UniProt Q05655)
[24] = target: PKN2 (human) (UniProt Q16513)
[25] = target: CSNK1G1 (human) (UniProt Q9HCP0)
[26] = target: MKNK2 (human) (UniProt Q9HBH9)
[27] = target: CSK (human) (UniProt P41240)
[28] = target: CHEK2 (human) (UniProt O96017)
[29] = target: NEK1 (human) (UniProt Q96PY6)
[30] = target: JAK1 JH1 catalytic (human) (UniProt P23458)
[31] = target: HIPK4 (human) (UniProt Q8NE63)
Chain of HIPK4 (human) (Q8NE63 whole entry, looked up): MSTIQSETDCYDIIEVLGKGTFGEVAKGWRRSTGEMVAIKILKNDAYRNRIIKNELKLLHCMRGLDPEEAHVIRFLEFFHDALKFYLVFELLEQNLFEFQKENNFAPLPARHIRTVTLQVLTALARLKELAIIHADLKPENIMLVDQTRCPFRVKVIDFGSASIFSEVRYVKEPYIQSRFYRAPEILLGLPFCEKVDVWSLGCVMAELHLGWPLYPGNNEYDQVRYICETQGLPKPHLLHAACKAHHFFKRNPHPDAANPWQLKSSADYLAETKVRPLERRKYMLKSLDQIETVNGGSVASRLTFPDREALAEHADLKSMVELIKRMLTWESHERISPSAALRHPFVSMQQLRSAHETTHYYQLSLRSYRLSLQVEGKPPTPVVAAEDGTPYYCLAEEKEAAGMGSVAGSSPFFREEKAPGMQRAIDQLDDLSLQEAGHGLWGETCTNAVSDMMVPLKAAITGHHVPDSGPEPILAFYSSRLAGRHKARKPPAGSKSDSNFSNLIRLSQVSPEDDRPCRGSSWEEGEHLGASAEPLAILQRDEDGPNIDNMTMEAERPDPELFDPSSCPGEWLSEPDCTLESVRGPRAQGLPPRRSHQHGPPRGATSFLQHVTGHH

[32] = target: MAPK10 (human) (UniProt P53779)
[33] = target: CLK3 (human) (UniProt P49761)
[34] = target: NUAK1 (human) (UniProt O60285)
[35] = target: EPHB2 (human) (UniProt P29323)
Chain of EPHB2 (human) (P29323 whole entry, looked up): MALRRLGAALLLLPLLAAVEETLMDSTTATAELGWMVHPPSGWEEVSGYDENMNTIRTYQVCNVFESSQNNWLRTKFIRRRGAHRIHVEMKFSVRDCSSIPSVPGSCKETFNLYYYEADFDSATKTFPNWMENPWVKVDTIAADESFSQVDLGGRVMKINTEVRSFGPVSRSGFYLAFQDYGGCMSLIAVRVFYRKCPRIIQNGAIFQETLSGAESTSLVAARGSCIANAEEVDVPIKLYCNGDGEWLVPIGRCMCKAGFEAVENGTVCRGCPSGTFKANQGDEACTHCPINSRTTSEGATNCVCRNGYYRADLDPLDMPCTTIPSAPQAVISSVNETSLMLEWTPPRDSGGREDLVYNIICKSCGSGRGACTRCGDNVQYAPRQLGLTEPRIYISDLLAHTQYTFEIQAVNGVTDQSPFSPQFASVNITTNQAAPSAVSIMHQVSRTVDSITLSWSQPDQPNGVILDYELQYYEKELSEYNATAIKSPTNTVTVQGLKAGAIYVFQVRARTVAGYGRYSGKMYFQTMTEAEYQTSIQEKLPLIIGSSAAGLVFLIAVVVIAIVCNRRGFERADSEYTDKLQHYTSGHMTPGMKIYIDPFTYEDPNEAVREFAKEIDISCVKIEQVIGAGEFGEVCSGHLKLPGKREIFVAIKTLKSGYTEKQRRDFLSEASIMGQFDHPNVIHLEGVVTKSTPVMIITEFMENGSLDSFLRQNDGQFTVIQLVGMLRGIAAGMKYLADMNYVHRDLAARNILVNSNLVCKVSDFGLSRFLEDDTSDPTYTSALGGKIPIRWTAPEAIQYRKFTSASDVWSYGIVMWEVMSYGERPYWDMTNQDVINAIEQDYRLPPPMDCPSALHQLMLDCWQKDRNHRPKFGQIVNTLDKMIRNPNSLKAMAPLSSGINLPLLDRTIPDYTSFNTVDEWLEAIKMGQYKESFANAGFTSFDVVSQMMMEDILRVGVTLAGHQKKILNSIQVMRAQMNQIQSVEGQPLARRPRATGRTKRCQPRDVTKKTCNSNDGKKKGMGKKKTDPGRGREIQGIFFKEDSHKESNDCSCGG

[36] = target: CAMKK1 (human) (UniProt Q8N5S9)
[37] = target: DYRK2 (human) (UniProt Q92630)
Chain of DYRK2 (human) (Q92630 whole entry, looked up): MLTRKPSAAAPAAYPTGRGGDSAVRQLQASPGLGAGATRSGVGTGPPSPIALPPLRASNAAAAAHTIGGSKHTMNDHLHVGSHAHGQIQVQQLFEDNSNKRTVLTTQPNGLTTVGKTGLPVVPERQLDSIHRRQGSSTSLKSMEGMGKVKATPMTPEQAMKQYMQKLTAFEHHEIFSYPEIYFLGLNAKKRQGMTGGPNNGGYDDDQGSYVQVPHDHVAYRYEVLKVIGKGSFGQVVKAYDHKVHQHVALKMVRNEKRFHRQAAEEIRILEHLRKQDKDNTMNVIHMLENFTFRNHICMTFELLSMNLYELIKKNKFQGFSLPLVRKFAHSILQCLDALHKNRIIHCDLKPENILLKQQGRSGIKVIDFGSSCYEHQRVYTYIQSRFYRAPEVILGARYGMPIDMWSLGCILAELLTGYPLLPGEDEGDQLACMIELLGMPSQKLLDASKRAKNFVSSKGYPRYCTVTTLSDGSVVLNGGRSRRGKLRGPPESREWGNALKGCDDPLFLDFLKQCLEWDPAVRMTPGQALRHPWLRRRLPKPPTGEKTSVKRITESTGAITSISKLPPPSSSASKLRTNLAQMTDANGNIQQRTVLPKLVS

[38] = target: CHEK1 (human) (UniProt O14757)
Chain of CHEK1 (human) (O14757 whole entry, looked up): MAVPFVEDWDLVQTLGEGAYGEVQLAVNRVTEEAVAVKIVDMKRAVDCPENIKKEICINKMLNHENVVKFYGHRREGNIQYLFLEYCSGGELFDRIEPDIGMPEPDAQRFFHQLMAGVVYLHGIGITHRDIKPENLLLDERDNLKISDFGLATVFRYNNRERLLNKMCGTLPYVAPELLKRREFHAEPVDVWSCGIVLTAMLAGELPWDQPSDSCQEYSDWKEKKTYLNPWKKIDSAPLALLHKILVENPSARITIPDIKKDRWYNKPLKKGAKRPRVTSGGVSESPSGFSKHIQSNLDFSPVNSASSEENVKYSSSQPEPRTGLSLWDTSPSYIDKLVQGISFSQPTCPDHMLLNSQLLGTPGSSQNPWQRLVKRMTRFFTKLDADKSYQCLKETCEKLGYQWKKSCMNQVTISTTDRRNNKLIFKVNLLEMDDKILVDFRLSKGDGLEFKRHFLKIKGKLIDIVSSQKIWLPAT

[39] = target: PAK7 (human) (UniProt Q9P286)
Chain of PAK7 (human) (Q9P286 whole entry, looked up): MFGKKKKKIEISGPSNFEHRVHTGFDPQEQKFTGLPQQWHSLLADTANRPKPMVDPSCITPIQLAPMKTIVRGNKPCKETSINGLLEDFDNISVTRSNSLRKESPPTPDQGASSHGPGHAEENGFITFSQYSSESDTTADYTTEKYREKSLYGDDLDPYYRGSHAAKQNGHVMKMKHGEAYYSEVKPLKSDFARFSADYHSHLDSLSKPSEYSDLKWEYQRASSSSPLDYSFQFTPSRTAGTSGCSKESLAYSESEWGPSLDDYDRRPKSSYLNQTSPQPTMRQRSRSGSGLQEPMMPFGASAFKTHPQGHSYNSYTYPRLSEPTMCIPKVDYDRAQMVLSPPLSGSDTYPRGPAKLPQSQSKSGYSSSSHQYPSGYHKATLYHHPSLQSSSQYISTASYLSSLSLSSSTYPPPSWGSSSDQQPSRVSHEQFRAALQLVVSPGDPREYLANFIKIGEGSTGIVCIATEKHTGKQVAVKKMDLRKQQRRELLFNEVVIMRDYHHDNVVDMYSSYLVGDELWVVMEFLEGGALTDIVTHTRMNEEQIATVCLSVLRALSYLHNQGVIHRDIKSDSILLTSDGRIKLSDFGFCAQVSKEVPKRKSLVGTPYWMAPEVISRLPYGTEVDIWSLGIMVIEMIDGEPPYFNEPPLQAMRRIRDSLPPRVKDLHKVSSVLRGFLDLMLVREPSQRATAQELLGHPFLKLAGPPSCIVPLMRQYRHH

[40] = target: BMX (human) (UniProt P51813)
Chain of BMX (human) (P51813 whole entry, looked up): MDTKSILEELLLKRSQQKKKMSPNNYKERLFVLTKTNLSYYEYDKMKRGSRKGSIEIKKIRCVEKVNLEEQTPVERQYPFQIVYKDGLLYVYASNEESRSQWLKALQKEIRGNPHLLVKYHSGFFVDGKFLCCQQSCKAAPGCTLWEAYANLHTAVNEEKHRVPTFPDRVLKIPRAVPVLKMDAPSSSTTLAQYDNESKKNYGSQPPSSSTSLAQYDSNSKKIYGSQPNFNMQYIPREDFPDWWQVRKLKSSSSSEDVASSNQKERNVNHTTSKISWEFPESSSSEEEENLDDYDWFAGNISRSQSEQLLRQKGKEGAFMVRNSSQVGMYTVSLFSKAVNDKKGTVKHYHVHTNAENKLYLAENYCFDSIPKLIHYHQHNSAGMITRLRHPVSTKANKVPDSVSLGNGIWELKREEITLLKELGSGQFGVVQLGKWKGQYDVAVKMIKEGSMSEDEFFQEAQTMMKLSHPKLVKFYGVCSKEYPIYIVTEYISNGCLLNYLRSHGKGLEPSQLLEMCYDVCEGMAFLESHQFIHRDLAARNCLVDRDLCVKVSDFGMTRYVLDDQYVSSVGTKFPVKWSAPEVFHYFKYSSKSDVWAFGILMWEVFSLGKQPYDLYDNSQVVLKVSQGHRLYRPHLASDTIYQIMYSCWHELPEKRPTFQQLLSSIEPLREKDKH

[41] = target: PRKD2 (human) (UniProt Q9BZL6)
[42] = target: ABL2 (human) (UniProt P42684)

SMILES: CCC(=O)Nc1ccc2ncnc(Nc3cccc(Br)c3)c2c1
residual activity [1]: 81%
residual activity [2]: 93.7%
residual activity [3]: 96.5%
residual activity [4]: 92.7%
residual activity [5]: 79.5%
residual activity [6]: 87%
residual activity [7]: 126%
residual activity [8]: 93%
residual activity [9]: 95.7%
residual activity [10]: 113%
residual activity [11]: 86.1%
residual activity [12]: 84.9%
residual activity [13]: 79.1%
residual activity [14]: 77.1%
residual activity [15]: 76.1%
residual activity [16]: 105%
residual activity [17]: 89.7%
residual activity [18]: 97.9%
residual activity [19]: 57.2%
residual activity [20]: 91.3%
residual activity [21]: 91.4%
residual activity [22]: 77.4%
residual activity [23]: 93.8%
residual activity [24]: 106%
residual activity [25]: 98.6%
residual activity [26]: 55.6%
residual activity [27]: 89.5%
residual activity [28]: 87.1%
residual activity [29]: 76.9%
residual activity [30]: 96.6%
residual activity [31]: 87.8%
residual activity [32]: 96.5%
residual activity [33]: 99.3%
residual activity [34]: 87.3%
residual activity [35]: 95.1%
residual activity [36]: 99.8%
residual activity [37]: 90.6%
residual activity [38]: 114%
residual activity [39]: 91.6%
residual activity [40]: 98.7%
residual activity [41]: 85.1%
residual activity [42]: 96.6%

SMILES: O=C1NC(=O)/C(=C/c2ccc3c(c2)OC(F)(F)O3)S1
residual activity [1]: 95.5%
residual activity [2]: 98.7%
residual activity [3]: 106%
residual activity [4]: 101%
residual activity [5]: 83.1%
residual activity [6]: 87.9%
residual activity [7]: 107%
residual activity [8]: 96.3%
residual activity [9]: 103%
residual activity [10]: 102%
residual activity [11]: 92.3%
residual activity [12]: 89.9%
residual activity [13]: 90%
residual activity [14]: 91.9%
residual activity [15]: 94%
residual activity [16]: 102%
residual activity [17]: 92.9%
residual activity [18]: 94.8%
residual activity [19]: 94.8%
residual activity [20]: 89.3%
residual activity [21]: 96.9%
residual activity [22]: 74.8%
residual activity [23]: 93.2%
residual activity [24]: 113%
residual activity [25]: 75.5%
residual activity [26]: 98.3%
residual activity [27]: 88%
residual activity [28]: 97.9%
residual activity [29]: 79.6%
residual activity [30]: 104%
residual activity [31]: 99.4%
residual activity [32]: 102%
residual activity [33]: 96.8%
residual activity [34]: 91.8%
residual activity [35]: 95.8%
residual activity [36]: 86%
residual activity [37]: 98.6%
residual activity [38]: 101%
residual activity [39]: 93%
residual activity [40]: 99.6%
residual activity [41]: 91.5%
residual activity [42]: 96%

SMILES: COc1cc2ncnc(Nc3cccc(Cl)c3)c2cc1OC
residual activity [1]: 60.3%
residual activity [2]: 85.1%
residual activity [3]: 111%
residual activity [4]: 82.8%
residual activity [5]: 27.8%
residual activity [6]: 59.9%
residual activity [7]: 95.3%
residual activity [8]: 96%
residual activity [9]: 102%
residual activity [10]: 108%
residual activity [11]: 89.8%
residual activity [12]: 90.4%
residual activity [13]: 108%
residual activity [14]: 93.3%
residual activity [15]: 98.2%
residual activity [16]: 85.4%
residual activity [17]: 93.8%
residual activity [18]: 92.3%
residual activity [19]: 39%
residual activity [20]: 90.8%
residual activity [21]: 96.1%
residual activity [22]: 142%
residual activity [23]: 86.4%
residual activity [24]: 89.8%
residual activity [25]: 99.9%
residual activity [26]: 39.5%
residual activity [27]: 91.1%
residual activity [28]: 79.7%
residual activity [29]: 93.1%
residual activity [30]: 90.4%
residual activity [31]: 64.4%
residual activity [32]: 89%
residual activity [33]: 90.5%
residual activity [34]: 75.8%
residual activity [35]: 98.1%
residual activity [36]: 92.2%
residual activity [37]: 84.6%
residual activity [38]: 93.7%
residual activity [39]: 83%
residual activity [40]: 88.6%
residual activity [41]: 92.3%
residual activity [42]: 52.6%

residual activity [1]: 45.5%
residual activity [2]: 91%
residual activity [3]: 91.9%
residual activity [4]: 95.2%
residual activity [5]: 24%
residual activity [6]: 27%
residual activity [7]: 66.5%
residual activity [8]: 91.9%
residual activity [9]: 94.5%
residual activity [10]: 90.7%
residual activity [11]: 41.9%
residual activity [12]: 87%
residual activity [13]: 41.9%
residual activity [14]: 35.7%
residual activity [15]: 68.5%
residual activity [16]: 86.7%
residual activity [17]: 87.4%
residual activity [18]: 61.8%
residual activity [19]: 91.3%
residual activity [20]: 97.2%
residual activity [21]: 21.9%
residual activity [22]: 61.9%
residual activity [23]: 95.3%
residual activity [24]: 85.4%
residual activity [25]: 104%
residual activity [26]: 106%
residual activity [27]: 78.2%
residual activity [28]: 85.1%
residual activity [29]: 23.5%
residual activity [30]: 68%
residual activity [31]: 103%
residual activity [32]: 99%
residual activity [33]: 71.1%
residual activity [34]: 15.9%
residual activity [35]: 91.8%
residual activity [36]: 93.3%
residual activity [37]: 101%
residual activity [38]: 89.7%
residual activity [39]: 97.1%
residual activity [40]: 97.3%
residual activity [41]: 58.3%
residual activity [42]: 73.2%
SMILES: Cc1[nH]c(/C=C2\C(=O)Nc3ccc(S(=O)(=O)N(C)c4cccc(Cl)c4)cc32)c(C)c1C(=O)N1CCN(C)CC1
